Data: patent publication US11304929B2, “Tosylacetate based compounds and derivatives thereof as PHGDH inhibitors” (priority 2017, dated 2022)
Read-outs that look alike come from different tables or passages of the source.

Tests used:
MDA-MB-468 = assay: 13C3 Serine Assay MDA-MB-468 (13C3 serine levels by LC/MS/MS); format: cell-based; conditions: MDA-MB-468 cells, 13C3 serine levels by LC/MS/MS, read-out: IC50 (13CSERINE)
Protocol: Cells are cultivated in Medium I in a 75 mL flask.
Day 1: 5000 cells in 180 μL Medium I/well were seeded into a 96-well plate. Plates were incubated at 37° C. in a 5% CO2 incubator overnight.
Day 2: 10 mM DMSO stock from test compounds were serially pre-diluted with Medium I (See dilution scheme: for the first well 20 μL DMSO stock are diluted with 180 μL Medium I. From this 1000 μM solution further seven 1:3 (1+2) dilution are prepared with Medium I). 20 μL of these pre-dilutions are transferred in duplicates to the 96-well plate of Day 1. After incubation at 37° C. in a CO2 incubator for 1 hour the medium was removed, 100 μL PBS (tempered to room temperature) added and subsequently removed again.
180 μL Medium II were then added per well and 20 μL of serial dilutions of test compounds in Medium II (as described before) were transferred per well as above. After 180 minutes incubation at 37° C. in a CO2 incubator the medium was again cautiously removed.
After the addition of 100 μL methanol: H2O (80:20, v:v, pre-cooled to −80° C.) the plates were sealed immediately and frozen at −80° C.
At day of measurement plates were thawn, centrifuged and the supernatant evaporated. The samples were resuspended in 100 μl water for tandem mass spectrometry.
^13C3 serine levels were analyzed with LC/MS/MS using Multiple Reaction Monitoring (MRM).
IC50 values were computed from these values using a 4 parametric logistic model.

PHGDH = PHGDH (Homo sapiens (Human), UniProt O43175); assay: 3-Phosphoglycerate Dehydrogenase (PHGDH) Fluorescence Intensity Assay, run at two NAD/3-PG ratios: PHGDH_HIGH_NAD/3-PG (250 μM NAD/500 μM 3-PG) and PHGDH_500_NAD/3-PG (500 μM NAD/500 μM 3-PG); format: biochemical
PHGDH, sequence (O43175 2-533 limits assumed): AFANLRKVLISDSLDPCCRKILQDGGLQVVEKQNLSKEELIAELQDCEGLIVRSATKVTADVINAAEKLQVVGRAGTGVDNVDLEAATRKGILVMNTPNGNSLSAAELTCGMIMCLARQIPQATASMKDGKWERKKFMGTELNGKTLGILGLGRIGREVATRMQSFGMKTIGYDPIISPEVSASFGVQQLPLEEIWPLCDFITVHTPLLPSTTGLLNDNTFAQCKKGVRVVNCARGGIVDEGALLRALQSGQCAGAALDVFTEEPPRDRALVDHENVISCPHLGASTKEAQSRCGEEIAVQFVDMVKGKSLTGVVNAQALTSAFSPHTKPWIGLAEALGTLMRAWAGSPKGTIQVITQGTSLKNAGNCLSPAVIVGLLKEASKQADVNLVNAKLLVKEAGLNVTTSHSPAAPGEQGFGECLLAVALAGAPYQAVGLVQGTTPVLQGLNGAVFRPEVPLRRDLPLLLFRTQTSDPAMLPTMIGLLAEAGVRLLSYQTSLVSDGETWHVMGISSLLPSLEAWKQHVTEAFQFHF

[1] = 250 μM NAD/500 μM 3-PG, read-out: IC50 (PHGDH_HIGH_NAD/3-PG)
[2] = 500 μM NAD/500 μM 3-PG, read-out: IC50 (PHGDH_500_NAD/3-PG)

| SMILES | IC50 (PHGDH; [1]) [nM] | IC50 (PHGDH; [2]) [nM] | also measured |
| --- | --- | --- | --- |
| Cc1cc(Cl)c2cc(C(=O)N[C@H](C)c3ccc(S(=O)(=O)CC(=O)OC(C)C)cc3)n(C)c2c1 [Example 01-018, propan-2-yl 2-{4-[(1R)-1-[(4-chloro-1,6-dimethyl-1H-indol-2-yl)formamido]ethyl]benzenesulfonyl}acetate] | – | – | IC50 (MDA-MB-468; Homo sapiens): 0.0663 µM |
| COC(=O)CS(=O)(=O)c1ccc([C@@H](C)NC(=O)c2cc3c(Cl)cc(C)cc3n2C)nc1 [Example 01-029, methyl 2-({6-[(1R)-1-[(4-chloro-1,6-dimethyl-1H-indol-2-yl)formamido]ethyl]pyridin-3-yl}sulfonyl)acetate] | – | – | IC50 (MDA-MB-468; Homo sapiens): 0.0514 µM |
| Cc1cc2c(cc(C(=O)N[C@H](CO)c3ccc([S@@+]([O-])CC(=O)O)cc3)n2C)c(Cl)c1Cl [Example 12-001, 2-[(S)-4-[(1S)-1-[(4,5-dichloro-1,6-dimethyl-1H-indol-2-yl)formamido]-2-hydroxyethyl]benzenesulfinyl]acetic acid] | 7 | 9 | – |
| Cc1cc2c(cc(C(=O)N[C@H](CO)c3ccc([S@+]([O-])CC(=O)O)cc3)n2C)c(Cl)c1Cl [Example 12-002, 2-[(R)-4-[(1S)-1-[(4,5-dichloro-1,6-dimethyl-1H-indol-2-yl)formamido]-2-hydroxyethyl]benzenesulfinyl]acetic acid] | 3 | 4 | – |
| Cc1cc2c(cc(C(=O)N[C@H](CO)c3ccc([S+]([O-])CC(=O)O)cc3)n2C)c(Cl)c1Cl (stereo partly drawn) [Example 12-003, 2-{4-[(1S)-1-[(4,5-dichloro-1,6-dimethyl-1H-indol-2-yl)formamido]-2-hydroxyethyl]benzenesulfinyl}acetic acid] | 3 | 5 | – |
| Cc1cc(Cl)c2cc(C(=O)N[C@H](C)c3ccc([S+]([O-])CC(=O)O)cc3)n(C)c2c1 (stereo partly drawn) [Example 12-004, 2-{4-[(1R)-1-[(4-chloro-1,6-dimethyl-1H-indol-2-yl)formamido]ethyl]benzenesulfinyl}acetic acid] | 11 | 18 | – |
| Cc1cc(Cl)c2cc(C(=O)N[C@H](C)c3ccc([S@+]([O-])CC(=O)O)cc3)n(C)c2c1 [Example 12-005, 2-[(R)-4-[(1R)-1-[(4-chloro-1,6-dimethyl-1H-indol-2-yl)formamido]ethyl]benzenesulfinyl]acetic acid] | 17 | 28 | – |
| Cc1cc(Cl)c2cc(C(=O)N[C@H](C)c3ccc([S@@+]([O-])CC(=O)O)cc3)n(C)c2c1 [Example 12-006, 2-[(S)-4-[(1R)-1-[(4-chloro-1,6-dimethyl-1H-indol-2-yl)formamido]ethyl]benzenesulfinyl]acetic acid] | 61 | 95 | – |
| Cc1cc(Cl)c2cc(C(=O)N[C@H](CO)c3ccc([S+]([O-])CC(=O)O)cc3)n(C)c2c1 (stereo partly drawn) [Example 12-007, 2-{4-[(1S)-1-[(4-chloro-1,6-dimethyl-1H-indol-2-yl)formamido]-2-hydroxyethyl]benzenesulfinyl}acetic acid] | 8 | 11 | – |
| Cc1cc2c(cc(C(=O)N[C@H](C)c3ccc([S+]([O-])CC(=O)O)cc3)n2C)c(Cl)c1Cl (stereo partly drawn) [Example 12-008, 2-{4-[(1R)-1-[(4,5-dichloro-1,6-dimethyl-1H-indol-2-yl)formamido]ethyl]benzenesulfinyl}acetic acid] | – | 8 | – |
| Cc1cc2c(cc(C(=O)N[C@H](CO)c3ccc([S@+]([O-])CC(=O)O)cc3)n2C)c(F)c1F [Example 12-009, 2-[(R)-4-[(1S)-1-[(4,5-difluoro-1,6-dimethyl-1H-indol-2-yl)formamido]-2-hydroxyethyl]benzenesulfinyl]acetic acid] | – | 32 | – |
| Cc1cc2c(cc(C(=O)N[C@H](CO)c3ccc([S@@+]([O-])CC(=O)O)cc3)n2C)c(F)c1F [Example 12-010, 2-[(S)-4-[(1S)-1-[(4,5-difluoro-1,6-dimethyl-1H-indol-2-yl)formamido]-2-hydroxyethyl]benzenesulfinyl]acetic acid] | – | 10 | – |
| Cc1cc2c(cc(C(=O)N[C@H](CO)c3ccc([S@+]([O-])CC(=O)OC(C)C)cc3)n2C)c(Cl)c1Cl [Example 13-001, propan-2-yl 2-[(R)-4-[(1S)-1-[(4,5-dichloro-1,6-dimethyl-1H-indol-2-yl)formamido]-2-hydroxyethyl]benzenesulfinyl]acetate] | 204 | 305 | – |
| Cc1cc2c(cc(C(=O)N[C@H](CO)c3ccc([S@@+]([O-])CC(=O)OC(C)C)cc3)n2C)c(Cl)c1Cl [Example 13-002, propan-2-yl 2-[(S)-4-[(1S)-1-[(4,5-dichloro-1,6-dimethyl-1H-indol-2-yl)formamido]-2-hydroxyethyl]benzenesulfinyl]acetate] | 819 | 1020 | – |
| Cc1cc2c(cc(C(=O)N[C@H](CO)c3ccc([S@@+]([O-])CC(=O)OC4CCOCC4)cc3)n2C)c(Cl)c1Cl [Example 13-003, oxan-4-yl 2-[(S)-4-[(1S)-1-[(4,5-dichloro-1,6-dimethyl-1H-indol-2-yl)formamido]-2-hydroxyethyl]benzenesulfinyl]acetate] | – | 211 | – |
| Cc1cc2c(cc(C(=O)N[C@H](CO)c3ccc([S@@+]([O-])CC(=O)OC(C)C)cc3)n2C)c(F)c1F [Example 13-004, propan-2-yl 2-[(S)-4-[(1S)-1-[(4,5-difluoro-1,6-dimethyl-1H-indol-2-yl)formamido]-2-hydroxyethyl]benzenesulfinyl]acetate] | – | 690 | – |
| Cc1cc2c(cc(C(=O)N[C@H](CO)c3ccc([S@+]([O-])CC(=O)OC4CCOCC4)cc3)n2C)c(Cl)c1Cl [Example 13-005, oxan-4-yl 2-[(R)-4-[(1S)-1-[(4,5-dichloro-1,6-dimethyl-1H-indol-2-yl)formamido]-2-hydroxyethyl]benzenesulfinyl]acetate] | – | 191 | – |
| Cc1cc2c(cc(C(=O)N[C@H](CO)c3ccc([S@+]([O-])CC(=O)OC(C)C)cc3)n2C)c(F)c1F [Example 13-006, propan-2-yl 2-[(R)-4-[(1S)-1-[(4,5-difluoro-1,6-dimethyl-1H-indol-2-yl)formamido]-2-hydroxyethyl]benzenesulfinyl]acetate] | – | 2080 | – |
| Cc1cc(Cl)c2cc(C(=O)N[C@H](C)c3ccc([S+]([O-])CC(=O)OC(C)C)cc3)n(C)c2c1 (stereo partly drawn) [Example 13-007, propan-2-yl 2-{4-[(1R)-1-[(4-chloro-1,6-dimethyl-1H-indol-2-yl)formamido]ethyl]benzenesulfinyl}acetate] | 2140 | – | – |
| Cc1cc(Cl)c2cc(C(=O)N[C@H](CO)c3ccc([S+]([O-])CC(=O)OC(C)C)cc3)n(C)c2c1 (stereo partly drawn) [Example 13-008, propan-2-yl 2-{4-[(1S)-1-[(4-chloro-1,6-dimethyl-1H-indol-2-yl)formamido]-2-hydroxyethyl]benzenesulfinyl}acetate] | 695 | 1200 | – |
| Cc1cc2c(cc(C(=O)N[C@H](CO)c3ccc([S+]([O-])CC(=O)OC(C)C)cc3)n2C)c(Cl)c1Cl (stereo partly drawn) [Example 13-009, propan-2-yl 2-{4-[(1S)-1-[(4,5-dichloro-1,6-dimethyl-1H-indol-2-yl)formamido]-2-hydroxyethyl]benzenesulfinyl}acetate] | 428 | 797 | – |
| Cc1cc2c(cc(C(=O)N[C@H](CO)c3ccc([S+]([O-])CC(=O)OC(C)C)cc3)n2C)c(F)c1F (stereo partly drawn) [Example 13-010, propan-2-yl 2-{4-[(1S)-1-[(4,5-difluoro-1,6-dimethyl-1H-indol-2-yl)formamido]-2-hydroxyethyl]benzenesulfinyl}acetate] | – | 1060 | – |
| Cc1cc2c(cc(C(=O)N[C@H](C)c3ccc([S+]([O-])CC(=O)OC(C)C)cc3)n2C)c(Cl)c1Cl (stereo partly drawn) [Example 13-011, propan-2-yl 2-{4-[(1R)-1-[(4,5-dichloro-1,6-dimethyl-1H-indol-2-yl)formamido]ethyl]benzenesulfinyl}acetate] | – | 1740 | – |
| C[C@@H](NC(=O)c1cc(-c2ccc(F)cc2)nn1C)c1ccc(S(=O)(=O)CC(=O)NOCCN2CCOCC2)cc1 [Example 15-001, 3-(4-fluorophenyl)-1-methyl-N-[(1R)-1-[4-({[2-(morpholin-4-yl)ethoxy]carbamoyl}methanesulfonyl)phenyl]ethyl]-1H-pyrazole-5-carboxamide] | – | – | IC50 (MDA-MB-468; Homo sapiens): 55.4 µM |
| C[C@@H](NC(=O)c1cc(-c2ccc(F)cc2)nn1C)c1ccc(S(=O)(=O)CC(=O)NOC2CCN(C)CC2)cc1 [Example 15-002, 3-(4-fluorophenyl)-1-methyl-N-[(1R)-1-[4-({[(1-methylpiperidin-4-yl)oxy]carbamoyl}methanesulfonyl)phenyl]ethyl]-1H-pyrazole-5-carboxamide] | – | – | IC50 (MDA-MB-468; Homo sapiens): 85.3 µM |
| Cc1cc(Cl)c2cc(C(=O)N[C@H](C)c3ccc(S(=O)(=O)CC(=O)CCC(=O)O)cc3)n(C)c2c1 [Example 15-003, 5-{4-[(1R)-1-[(4-chloro-1,6-dimethyl-1H-indol-2-yl)formamido]ethyl]benzenesulfonyl}-4-oxopentanoic acid] | – | – | IC50 (MDA-MB-468; Homo sapiens): 9.64 µM |
| CONC(=O)CS(=O)(=O)c1ccc([C@@H](C)NC(=O)c2cc(-c3ccc(F)cc3)nn2C)cc1 [Example 15-004, 3-(4-fluorophenyl)-N-[(1R)-1-{4-[(methoxycarbamoyl)methanesulfonyl]phenyl}ethyl]-1-methyl-1H-pyrazole-5-carboxamide] | – | – | IC50 (MDA-MB-468; Homo sapiens): 6.27 µM |
| CCOC(=O)CS(=O)(=O)c1ccc([C@@H](C)NC(=O)c2cc(-n3ccc4ccccc43)nn2C)cc1 [Example 15-005, ethyl 2-{4-[(1R)-1-{[3-(1H-indol-1-yl)-1-methyl-1H-pyrazol-5-yl]formamido}ethyl]benzenesulfonyl}acetate] | – | – | IC50 (MDA-MB-468; Homo sapiens): 0.309 µM |
| CCOC(=O)CS(=O)(=O)c1ccc([C@@H](C)NC(=O)c2cc(-n3ncc4ccccc43)nn2C)cc1 [Example 15-006, ethyl 2-{4-[(1R)-1-{[3-(1H-indazol-1-yI)-1-methyl-1H-pyrazol-5-yl]formamido}ethyl]benzenesulfonyl}acetate] | – | – | IC50 (MDA-MB-468): 0.0733 µM |
